Here are results for 31 compounds from patent US8119687B2, “Derivatives of dioxan-2-alkyl carbamates, preparation thereof and application thereof in therapeutics” (Sanofi-Aventis, priority 2002, dated 2012).

In general, melting point refers to the temperature of the solid-liquid transition.

With `O=C(NCC[C@H]1OC[C@H](c2cccc3ccccc32)CO1)Oc1ccccc1`, the melting point was in the range of 131 to 133 °C.
The result for `O=C(NCCC[C@H]1OC[C@H](c2cccc3ccccc32)CO1)Oc1ccccc1` reads 125 to 127 °C; that for `COc1ccc2c(cccc2[C@H]2CO[C@H](CCNC(=O)Oc3ccc(Cl)cc3)OC2)c1`, 129 to 131 °C.
The figure for `COc1ccc2c(cccc2[C@H]2CO[C@H](CCCNC(=O)Oc3ccccc3)OC2)c1` is 128 °C; for `O=C(NCCC[C@H]1OC[C@H](c2cccc3cc(OCC4CC4)ccc32)CO1)Oc1ccc(Cl)cc1` it is 159 to 162 °C; for `COc1ccc2cccc([C@H]3CO[C@H](CCCNC(=O)Oc4ccccc4)OC3)c2c1` it is 151 to 153 °C.
In the case of `O=C(NCCC[C@H]1OC[C@H](c2ccc3ccccc3c2)CO1)Oc1ccccc1`, the melting point was in the range of 130 to 131 °C.
The figure for `NC(=O)COC(=O)NCCC[C@H]1OC[C@H](c2ccc(Cl)c3ccccc32)CO1` [Compound No. 46, 2-Amino-2-oxoethyl trans-3-[5-(4-chloronaphthalen-1-yl)-1,3-dioxan-2-yl]propylcarbamate] is 176 to 178 °C.
The result for `COc1ccc2c(cccc2[C@H]2CO[C@H](CCCNC(=O)OCC(=O)NC3CC3)OC2)c1` [Compound No. 61, 2-(Cyclopropylamino)-2-oxoethyl trans-3-[5-(6-methoxy-naphthalen-1-yl)-1,3-dioxan-2-yl]propylcarbamate] reads 176 °C; that for `O=C(NCCC[C@H]1OC[C@H](c2cccc3cc(OCC4CC4)ccc32)CO1)OCC(F)(F)F` [Compound No. 68, 2,2,2-Trifluoroethyl trans-3-[5-(6-cyclopropylmethoxy-naphthalen-1-yl)-1,3-dioxan-2-yl]propylcarbamate], 105 to 107 °C.
The result for `NC(=O)COC(=O)NCCC[C@H]1OC[C@H](c2cccc3ccccc32)CO1` [compound 38, 2-amino-2-oxoethyl trans-3-[5-(naphthalen-1-yl)-1,3-dioxan-2-yl]propylcarbamate] reads 112 to 114 °C.
`CNC(=O)COC(=O)NCC[C@H]1OC[C@H](c2cccc3ccccc32)CO1` [compound 39, 2-(methylamino)-2-oxoethyl trans-2-[5-(naphthalen-1-yl)-1,3-dioxan-2-yl]ethylcarbamate] showed a melting point of 86 to 88 °C.
The result for `CNC(=O)COC(=O)NCCC[C@H]1OC[C@H](c2cccc3ccccc32)CO1` [compound 40, 2-(methylamino)-2-oxoethyl trans-3-[5-(naphthalen-1-yl)-1,3-dioxan-2-yl]propylcarbamate] reads 154 °C; that for `O=C(NCC[C@H]1OC[C@H](c2cccc3ccccc32)CO1)OCC(F)(F)F` [compound 41, 2,2,2-trifluoroethyl trans-2-[5-(naphthalen-1-yl)-1,3-dioxan-2-yl]ethylcarbamate], 111 to 113 °C.
The figure for `O=C(NCCC[C@H]1OC[C@H](c2cccc3ccccc32)CO1)OCC(F)(F)F` [compound 42, 2,2,2-trifluoroethyl trans-3-[5-(naphthalen-1-yl)-1,3-dioxan-2-yl]propylcarbamate] is 89 to 92 °C; for `CNC(=O)COC(=O)NCCC[C@H]1OC[C@H](c2ccc(Cl)c3ccccc32)CO1` [compound 47, 2-(methylamino)-2-oxoethyl trans-3-[5-(4-chloro-naphthalen-1-yl)-1,3-dioxan-2-yl]propylcarbamate] it is 190 to 192 °C.
The figure for `CNC(=O)COC(=O)NCCC[C@H]1OC[C@H](c2cccc3cc(Cl)ccc32)CO1` [compound 48, 2-(methylamino)-2-oxoethyl trans-3-[5-(6-chloro-naphthalen-1-yl)-1,3-dioxan-2-yl]propylcarbamate] is 182 to 184 °C; for `CNC(=O)COC(=O)NCC[C@H]1OC[C@H](c2cccc3cc(OC)ccc32)CO1` [compound 54, 2-(methylamino)-2-oxoethyl trans-2-[5-(6-methoxy-naphthalen-1-yl)-1,3-dioxan-2-yl]ethylcarbamate] it is 136 to 138 °C.
For the compound `COc1ccc2c(cccc2[C@H]2CO[C@H](CCNC(=O)OCC(F)(F)F)OC2)c1` [compound 56, 2,2,2-trifluoroethyl trans-2-[5-(6-methoxynaphthalen-1-yl)-1,3-dioxan-2-yl]ethylcarbamate], the melting point fell in the range of 93 to 95 °C.
The figure for `CNC(=O)COC(=O)NCCC[C@H]1OC[C@H](c2cccc3cc(OC)ccc32)CO1` [compound 57, 2-(methylamino)-2-oxoethyl trans-3-[5-(6-methoxy-naphthalen-1-yl)-1,3-dioxan-2-yl]propylcarbamate] is 128 to 130 °C; for `CCNC(=O)COC(=O)NCCC[C@H]1OC[C@H](c2cccc3cc(OC)ccc32)CO1` [compound 58, 2-(ethylamino)-2-oxoethyl trans-3-[5-(6-methoxy-naphthalen-1-yl)-1,3-dioxan-2-yl]propylcarbamate] it is 170 to 172 °C.
The result for `COc1ccc2c(cccc2[C@H]2CO[C@H](CCCNC(=O)OCC(=O)NCc3ccncc3)OC2)c1` [compound 60, 2-[(pyridin-4-yl)methylamino]-2-oxoethyl trans-3-[5-(6-methoxynaphthalen-1-yl)-1,3-dioxan-2-yl]propylcarbamate] reads 152 °C; that for `COc1ccc2c(cccc2[C@H]2CO[C@H](CCCNC(=O)OCC(F)(F)F)OC2)c1` [compound 62, 2,2,2-trifluoroethyl trans-3-[5-(6-methoxynaphthalen-1-yl)-1,3-dioxan-2-yl]propylcarbamate], 111 °C; that for `NC(=O)COC(=O)NCCC[C@H]1OC[C@H](c2cccc3cc(OCC4CC4)ccc32)CO1` [compound 66, 2-amino-2-oxoethyl trans-3-[5-(6-cyclopropylmethoxy-naphthalen-1-yl)-1,3-dioxan-2-yl]propylcarbamate], 137 to 139 °C.
The result for `NC(=O)COC(=O)NCCC[C@H]1OC[C@H](c2cccc3cc(O)ccc32)CO1` [compound 70, 2-amino-2-oxoethyl trans-3-[5-(6-hydroxynaphthalen-1-yl)-1,3-dioxan-2-yl]propylcarbamate] reads 166 to 170 °C.
With `CNC(=O)COC(=O)NCCC[C@H]1OC[C@H](c2cccc3cc(O)ccc32)CO1` [compound 71, 2-(methylamino)-2-oxoethyl trans-3-[5-(6-hydroxy-naphthalen-1-yl)-1,3-dioxan-2-yl]propylcarbamate], the melting point was 140 to 148 °C.
In turn, `COc1ccc2cccc([C@H]3CO[C@H](CCCNC(=O)OCC(N)=O)OC3)c2c1` [compound 72, 2-amino-2-oxoethyl trans-3-[5-(7-methoxynaphthalen-1-yl)-1,3-dioxan-2-yl]propylcarbamate] had a melting point of 156 to 158 °C.
The figure for `CNC(=O)COC(=O)NCCC[C@H]1OC[C@H](c2cccc3ccc(OC)cc32)CO1` [compound 73, 2-(methylamino)-2-oxoethyl trans-3-[5-(7-methoxy-naphthalen-1-yl)-1,3-dioxan-2-yl]propylcarbamate] is 144 to 146 °C; for `COc1ccc2cccc([C@H]3CO[C@H](CCCNC(=O)OCC(F)(F)F)OC3)c2c1` [compound 74, 2,2,2-trifluoroethyl trans-3-[5-(7-methoxynaphthalen-1-yl)-1,3-dioxan-2-yl]propylcarbamate] it is 93 to 96 °C.
The figure for `CNC(=O)COC(=O)NCCC[C@H]1OC[C@H](c2ccc3ccccc3c2)CO1` [compound 77, 2-(methylamino)-2-oxoethyl trans-3-[5-(naphthalen-2-yl)-1,3-dioxan-2-yl]propylcarbamate] is 144 to 146 °C.
The figure for `O=C(NCCC[C@H]1OC[C@H](c2ccc3ccccc3c2)CO1)OCC(F)(F)F` [compound 78, 2,2,2-trifluoroethyl trans-3-[5-(naphthalen-2-yl)-1,3-dioxan-2-yl]propylcarbamate] is 130 to 132 °C.
